Measurements reported in PMC8699473, “An Easily Expandable Multi-Drug LC-MS Assay for the Simultaneous Quantification of 57 Oral Antitumor Drugs in Human Plasma” (Cancers, 2021).

Assay: Long-term stability in spiked pooled human plasma

Structure (SMILES)	Long-term stability, 1 month, -20°C Accuracy [%] (validation standard 2xLLOV)	Long-term stability, 1 month, -80°C Accuracy [%] (validation standard 2xLLOV)	Long-term stability, 2 month, -20°C Accuracy [%] (validation standard 2xLLOV)	Long-term stability, 2 month, -80°C Accuracy [%] (validation standard 2xLLOV)	Long-term stability, 3 month, -20°C Accuracy [%] (validation standard 2xLLOV)	Long-term stability, 3 month, -80°C Accuracy [%] (validation standard 2xLLOV)	Long-term stability, 6 weeks, 4°C, without daylight Accuracy [%] (validation standard 2xLLOV)	Long-term stability, 1 month, -20°C Accuracy [%] (validation standard LLOV)	Long-term stability, 1 month, -80°C Accuracy [%] (validation standard LLOV)	Long-term stability, 2 month, -20°C Accuracy [%] (validation standard LLOV)	Long-term stability, 2 month, -80°C Accuracy [%] (validation standard LLOV)	Long-term stability, 3 month, -20°C Accuracy [%] (validation standard LLOV)	Long-term stability, 3 month, -80°C Accuracy [%] (validation standard LLOV)	Long-term stability, 6 weeks, 4°C, without daylight Accuracy [%] (validation standard LLOV)	Long-term stability, 1 month, -20°C Accuracy [%] (validation standard MOV)	Long-term stability, 1 month, -80°C Accuracy [%] (validation standard MOV)	Long-term stability, 2 month, -20°C Accuracy [%] (validation standard MOV)	Long-term stability, 2 month, -80°C Accuracy [%] (validation standard MOV)	Long-term stability, 3 month, -20°C Accuracy [%] (validation standard MOV)	Long-term stability, 3 month, -80°C Accuracy [%] (validation standard MOV)	also measured
CC1(C)CCC(CN2CCN(c3ccc(C(=O)NS(=O)(=O)c4ccc(NCC5CCOCC5)c([N+](=O)[O-])c4)c(Oc4cnc5[nH]ccc5c4)c3)CC2)=C(c2ccc(Cl)cc2)C1 [Venetoclax]	102.9	104.0	104.9	111.9	85.1	101.9	99.8	111.0	109.1	105.5	115.7	101.9	99.3	92.7	99.9	103.6	109.3	110.0	100.0	99.6	Long-term stability, 6 weeks, 4°C, without daylight Accuracy [%] (validation standard MOV): 99.5%; Long-term stability, 1 month, -20°C Accuracy [%] (validation standard ULOV): 108.0%; Long-term stability, 1 month, -80°C Accuracy [%] (validation standard ULOV): 102.7%; Long-term stability, 2 month, -20°C Accuracy [%] (validation standard ULOV): 112.4%; Long-term stability, 2 month, -80°C Accuracy [%] (validation standard ULOV): 114.0%; Long-term stability, 3 month, -20°C Accuracy [%] (validation standard ULOV): 92.9%; Long-term stability, 3 month, -80°C Accuracy [%] (validation standard ULOV): 102.2%; Long-term stability, 6 weeks, 4°C, without daylight Accuracy [%] (validation standard ULOV): 95.2%
CCC1=C[C@@H]2CN(C1)Cc1c([nH]c3ccccc13)[C@@](C(=O)OC)(c1cc3c(cc1OC)N(C)[C@H]1[C@@](O)(C(=O)OC)[C@H](OC(C)=O)[C@]4(CC)C=CCN5CC[C@]31[C@@H]54)C2 [Vinorelbine]	97.3	110.2	108.5	94.1	98.4	97.8	75.3	118.3	110.0	98.1	109.4	101.7	118.7	85.9	90.2	88.9	89.2	92.4	98.2	93.5	Long-term stability, 6 weeks, 4°C, without daylight Accuracy [%] (validation standard MOV): 73.1%; Long-term stability, 1 month, -20°C Accuracy [%] (validation standard ULOV): 90.4%; Long-term stability, 1 month, -80°C Accuracy [%] (validation standard ULOV): 92.0%; Long-term stability, 2 month, -20°C Accuracy [%] (validation standard ULOV): 87.6%; Long-term stability, 2 month, -80°C Accuracy [%] (validation standard ULOV): 99.6%; Long-term stability, 3 month, -20°C Accuracy [%] (validation standard ULOV): 92.2%; Long-term stability, 3 month, -80°C Accuracy [%] (validation standard ULOV): 98.1%; Long-term stability, 6 weeks, 4°C, without daylight Accuracy [%] (validation standard ULOV): 56.9%
CS(=O)(=O)c1ccc(C(=O)Nc2ccc(Cl)c(-c3ccccn3)c2)c(Cl)c1 [Vismodegib]	105.4	99.5	106.5	104.3	100.1	99.6	107.5	92.5	88.6	94.1	96.9	84.3	84.4	96.6	97.8	97.9	103.0	103.7	101.3	100.9	Long-term stability, 6 weeks, 4°C, without daylight Accuracy [%] (validation standard MOV): 109.8%; Long-term stability, 1 month, -20°C Accuracy [%] (validation standard ULOV): 90.5%; Long-term stability, 1 month, -80°C Accuracy [%] (validation standard ULOV): 87.8%; Long-term stability, 2 month, -20°C Accuracy [%] (validation standard ULOV): 94.5%; Long-term stability, 2 month, -80°C Accuracy [%] (validation standard ULOV): 95.1%; Long-term stability, 3 month, -20°C Accuracy [%] (validation standard ULOV): 94.9%; Long-term stability, 3 month, -80°C Accuracy [%] (validation standard ULOV): 93.4%; Long-term stability, 6 weeks, 4°C, without daylight Accuracy [%] (validation standard ULOV): 96.5%
